Consider 8 compounds from US7635722B1, “Chemical induced intracellular hyperthermia” (priority 1998, dated 2009).

Read-outs that look alike come from different tables or passages of the source.

Data set [1] is classed as in vivo, human. The protocol: Placement of physiologic monitoring sensors, intravenous fluids, supplemental oxygen (4 l/min) and optional oral diazepam sedation (5-10 mg) is initiated prior to treatment. Patients receive 0.85 to 1.0 liter of intravenous (IV) 5% dextrose in 0.25 normal saline per hour alternated with 5% dextrose in 0.5 normal saline plus 7.5 to 10 meq of KCl per liter to insure a urinary output of no less than 1 ml/kg/hr. […] Two hours after treatment and 48 hours post-treatment, serum chemistries and hematologic profiles are repeated. A typical patient flow chart is depicted in FIG. 14.
Pretreatment protocol: the patient was given 10 mg diazepam by mouth and dressed into a modified wet suit. The wet suit was cut lengthwise at the arms and legs. Velcro strappings were attached at the cuttings for closure, rapid removal or exposure of the limb(s). After placement of monitoring sensors, they were started on IV fluids of 5% dextrose, 0.5 normal saline with 7 meq K^+, infused at an initial rate of 12 cc/kg/hr. Evaporative heat loss from the head was minimized by a plastic shower cap and towels. A 401AC temperature probe (YSI Incorporated, Yellow Springs, Ohio) was inserted 11 cm. into the rectum. […] A TEEM 100 Metabolic Analysis System (AeroSport Inc., Ann Arbor, Mich.), with a modified face mask and oxygen delivery system (38-40% 02 saturation) for patient comfort and increased accuracy, was attached to the patient. Oxygen consumption (V02), carbon dioxide production (VC02), expired air volume (VE), heart rate (HR), and Kcal of heat produced were measured in 20 second intervals and extrapolated to minute or hourly rates.
Pretreatment protocol: all medications were stopped 2 weeks prior to treatment. The patient refused taking diazepam, placement of a Foley catheter and oxygen face mask. They dressed themself into a dry cold water immersion suit (Stearns, ISS-590I, Universal Adult) designed to prevent heat loss and modified for easy placement of physiologic monitors. Equipment for measurement of heart rate, temperature, carbon dioxide production and Kcal of heat produced were conducted as outlined in Example 1. An oral breathing tube was used to measure V02 from room air. Urine output was measured when the patient voluntarily urinated through a “Texas” catheter (superficial condom tightly fitted around the head of the penis with tubing connected to urine collection bag). The patient was informed that hyperthermia would be administered as tolerated by their stamina and monitored clinical parameters, not to exceed 5 hours, on a daily or every other day basis, for a total of 5 sessions.
Pretreatment protocol: the evening prior treatment the patient was instructed not to eat and dress in cotton undergarments. Approximately 4 hours prior to treatment 2 mg alprazolam was administered by mouth. The patient dressed themself into a dry cold water immersion suit (Stearns, previously described) with headgear. Monitoring sensors, including EKG display, IV fluids and Foley catheter were attached and the suit was zipped closed. The patient opted for oxygen supplementation. The modified face mask was connected to the TEEM 100 metabolic Analysis System for V02 measurements. Data was recorded as previously described.
Pretreatment protocol: the patient was transfused with three units of packed red blood cells. A Foley catheter was inserted on each day of treatment. They were covered in a water soaked blanket containing a polyethylene lining. A shower cap with towels was used to prevent heat loss from the head. Intravenous lines were placed into both arms with 19 gauge intracaths. EKG, heart rate, rectal thermistor, and V02 monitors were attached. Oxygen supplemented facemask and equipment was attached and data monitored as previously described under Example 1.
Pretreatment protocol: the patient was transfused with 2 units of packed red blood cells 48 hours prior to undergoing treatment. Intravenous fluids (Lactated Ringer's solution) were administered at a rate of 100 cc/hour. […]

For data set [2] the following is noted: cited from earlier work.
The subject of another data set is hepatocyte. The note with it: in less than 6 minutes after the hormonal action of glucagon; cited from earlier work.
A further data set concerns hepatitis C virus. The data set is described as follows: DNP with interferon-alpha, chronic hepatitis C (Example 10). In kind it is in vivo, human. The note with it: patient history.

In turn, `CNC(C)(C)Cc1ccccc1.CNC(C)(C)Cc1ccccc1.O=S(=O)(O)O` [Mephenteramine sulfate] yielded a heart rate in data set [1] (Example 4, ten minutes after 30 mg intramuscular, before DNP) of 96. Besides, the V02 in data set [1] (Example 4, ten minutes after 30 mg intramuscular, before DNP, from 250) is 320 cc/min.

On to `NC[C@H](O)c1ccc(O)c(O)c1` [Norepinephrine bitartrate (Levophed), Norepinephrine bitartrate], for which the heart rate in data set [1] (Example 2, about 1 minute after vasopressor IV drip 1 microgram/min on DNP, from 90) came out at 100. The compound also yielded a V02 in data set [1] (Example 2, about 1 minute after vasopressor IV drip on DNP) of 0.85 L/min. In data set [1] (Example 2, within 20 minutes of vasopressor on DNP), this compound registered a core body temperature of 41.5 °C.

In the case of `Oc1ccc(CCCCNC[C@H](O)c2ccc(O)c(O)c2)cc1` [arbutamine], the half-life (usually how long it takes for the measured level to halve) in data set [2] (in vivo) was 10 min.

On to `NCCc1ccc(O)c(O)c1` [dopamine], for which the V02 in data set [1] (human, in vivo) is 680-710 cc/min.

For the compound `CN(C)c1ccc2nc3ccc(=[N+](C)C)cc-3sc2c1` [methylene blue], the VO2 in data set [1] (Example 9, after methylene blue 2 mg/kg infusion, on DNP 3 mg/kg) is reported as 450-500 cc/minute.

With `NC(=O)CC[C@@H]1NC(=O)[C@H](Cc2ccccc2)NC(=O)[C@H](Cc2ccc(O)cc2)NC(=O)[C@@H](N)CSSC[C@@H](C(=O)N2CCC[C@H]2C(=O)N[C@@H](CCCN=C(N)N)C(=O)NCC(N)=O)NC(=O)[C@H](CC(N)=O)NC1=O` [vasopressin], in data set [2] (in vivo), the half-life was 5 min.

As to glucagon, the “stimulation of hepatocyte uncoupled V02” value with hepatocyte was “up to 100%”. Besides, in data set [2] (in plasma), the half-life is 9 min.

With interferon alpha-2b, in the data set on hepatitis C virus (after 6 months of interferon alpha-2b with ribavirin, before relapse), the HCV-RNA result was “undetectable”. The hemoglobin concentration in the data set on hepatitis C virus (after 12 weeks of interferon alpha-2b with ribavirin, anemia) is reported as 9.2 g/deciliter.
